Measured values taken from patent US20180104220A1, “IMIDAZOLE COMPOUND” (MEDSHINE DISCOVERY INC., priority 2015, published 2018).

biological target: T1, thromboxane synthetase (Rattus norvegicus, UniProt P49430); assay: Release of TXB2 in the in-vitro coagulation process of rats' whole blood; format: cell-based; details: male SD rat whole blood, 37° C. 30 mins, TXB2 by LC-MS/MS; class symbols; read-out: IC50 for the release level of TXB2 in the in-vitro coagulation of rats' whole blood (thromboxane synthetase)
T1 construct: Whole blood was collected from the heart of male SD rat after isoflurane anesthesia; from tissue; host or cells: whole blood of male Sprague-Dawley rats
T1 sequence (P49430 1-533): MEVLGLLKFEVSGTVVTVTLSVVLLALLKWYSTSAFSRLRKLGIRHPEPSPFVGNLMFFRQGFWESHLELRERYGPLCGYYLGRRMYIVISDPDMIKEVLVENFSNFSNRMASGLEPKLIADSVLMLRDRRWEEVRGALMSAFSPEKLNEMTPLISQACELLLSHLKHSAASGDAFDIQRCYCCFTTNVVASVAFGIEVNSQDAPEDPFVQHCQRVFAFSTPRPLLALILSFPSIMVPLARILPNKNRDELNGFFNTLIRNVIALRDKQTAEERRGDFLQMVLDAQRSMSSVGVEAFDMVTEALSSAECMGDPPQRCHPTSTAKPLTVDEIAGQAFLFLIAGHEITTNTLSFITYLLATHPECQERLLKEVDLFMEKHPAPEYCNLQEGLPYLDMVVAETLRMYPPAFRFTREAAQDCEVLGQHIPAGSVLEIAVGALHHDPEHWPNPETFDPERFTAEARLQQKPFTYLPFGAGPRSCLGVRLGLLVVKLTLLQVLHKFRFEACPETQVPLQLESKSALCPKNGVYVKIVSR
Excerpt: Study for the Release of TXB2 in the in-vitro Coagulation Process of Rats' Whole Blood
In the in-vitro coagulation process, thromboxane A2 (TXA2) pathway was activated, resulting in the formation of large amounts of TXA2, which were rapidly metabolized to its stable form thromboxane B2 (TXB2).
The key enzyme of this pathway was thromboxane synthase. The generation of TXA2 could be inhibited by blocking this enzyme with specific inhibitors (tested compounds), and the level of TXB2 was thus decreased.
The activity of tested compound was measured with the IC50 of inhibiting the formation of TBX2.
Male Sprague-Dawley (SD) rats, purchased from Shanghai SLAC Laboratory Animal Co., Ltd.
0.9% normal saline, […] NaOH solution (vehicle), 100 uM thromboxane synthetase inhibitor solution, isoflurane
1. Tested compound was dissolved by normal saline and prepared to required concentration by gradient dilution. 167 uL of prepared solution was added to centrifuge tube.
2. Whole blood was collected from the heart of male SD rat after isoflurane anesthesia, added to centrifuge tube (0.5 mL), shaken up and incubated under 37° C. water bath for 30 mins until complete coagulation.
3. Centrifuge tube was taken out and centrifuged for 5 mins (6000 g, 4° C.) to get serum.
4. Assay the content of TXB2 by LC-MS/MS-AG (API 4000).
By comparison with the vehicle group, TXB2 contents of each sample were normalized to Control % by the formule:
Control %=(TBX2 level in test tube−TBX2 level in negative tube)/TBX2 level in control tube×100
Note: Test tube: solution of tested compound with series concentration
Negative tube: solution of thromboxane synthetase inhibitor at high concentration (100 uM)
Using GraphPad Prism (concentration as X-axis and Control % as Y-axis) to fit the data and calculate IC50.

| IC50 | SMILES |
| --- | --- |
| > 250 nM | Cc1c(O)noc1-c1ccc(Cn2ccnc2)cc1 [Compound 30, 5-(4-((1H-imidazol-1-yl)methyl)phenyl)-4-methylisoxazol-3-ol] |
| ≤ 25 nM | C[C@H](c1ccc(-c2cc(O)no2)cc1)n1ccnc1 [Compound 21, (R)-5-(4-(1-(1H-imidazol-1-yl)ethyl)phenyl)isoxazol-3-ol] |
| 100 to 250 nM | Oc1nccc(C2=CCC(Cn3ccnc3)CC2)c1F (stereo not drawn) [Compound 36, 4-(4-((1H-imidazol-1-yl)methyl)cyclohex-1-en-1-yl)-3-fluoropyridin-2-ol] |
| > 250 nM | Oc1cc(-c2ccc(Cn3ccnc3)cc2)sn1 [Compound 29, 5-(4-((1H-imidazol-1-yl)methyl)phenyl)isothiazol-3-ol] |
| > 250 nM | Oc1cc(-c2ccc(Cn3ccnc3)cc2)[nH]n1 [Compound 31, 5-(4-((1H-imidazol-1-yl)methyl)phenyl)-1H-pyrazol-3-ol] |
| > 250 nM | Oc1cc(Cc2cccc(Cn3ccnc3)c2)on1 [Compound 26, 5-(3-((1H-imidazol-1-yl)methyl)benzyl)isoxazol-3-ol] |
| > 250 nM | Oc1nccc(-c2ccc(Cn3ccnc3)cc2)c1F [Compound 27, 4-(4-((1H-imidazol-1-yl)methyl)phenyl)-3-fluoropyridin-2-ol] |
| ≤ 25 nM | CC(c1ccc(-c2cc(O)no2)cc1)n1ccnc1 (stereo not drawn) [Compound 20, 5-(4-(1-(1H-imidazol-1-yl)ethyl)phenyl)isoxazol-3-ol] |
| > 250 nM | Oc1cc(Cc2ccc(Cn3ccnc3)cc2)on1 [Compound 25, 5-(4-(2-(1H-imidazol-1-yl)methyl)benzyl)isoxazol-3-ol] |
| > 250 nM | Oc1cc(CCCCn2ccnc2)on1 [Compound 32, 5-(4-(1H-imidazol-1-yl)butyl)isoxazol-3-ol] |
| 50 to 100 nM | Oc1cc([C@H]2CC[C@@H](Cn3ccnc3)CC2)on1 [Compound 35, 5-(cis-4-((1H-imidazol-1-yl)methyl)cyclohexyl)isoxazol-3-ol] |
| 50 to 100 nM | C[C@@H](c1ccc(-c2cc(O)no2)cc1)n1ccnc1 [Compound 22, (S)-5-(4-(1-(1H-imidazol-1-yl)ethyl)phenyl)isoxazol-3-ol] |
| 100 to 250 nM | Oc1c(F)ccc(-c2ccc(Cn3ccnc3)cc2)c1F [Compound 28, 4′-((1H-imidazol-1-yl)methyl)-2,4-difluoro-[1,1′-biphenyl]-3-ol] |
| > 250 nM | Oc1cc(CCCCCn2ccnc2)on1 [Compound 33, 5-(5-(1H-imidazol-1-yl)pentyl)isoxazol-3-ol] |
| > 250 nM | Oc1cc(-c2cccc(Cn3ccnc3)c2)on1 [Compound 24, 5-(3-((1H-imidazol-1-yl)methyl)phenyl)isoxazol-3-ol] |
| 100 to 250 nM | CC(C)(c1ccc(-c2cc(O)no2)cc1)n1ccnc1 [Compound 23, 5-(4-(2-(1H-imidazol-1-yl)propan-2-yl)phenyl)isoxazol-3-ol] |
| 25 to 50 nM | Oc1cc([C@H]2CC[C@H](Cn3ccnc3)CC2)on1 [Compound 34, 5-(trans-4-((1H-imidazol-1-yl)methyl)cyclohexyl)isoxazol-3-ol] |

Further lines, the compound ahead of its results:

| SMILES | IC50 |
| --- | --- |
| Oc1cc(-c2ccc(Cn3ccnc3)c(Cl)c2)on1 [Compound 11, 5-(4-((1H-imidazol-1-yl)methyl)-3-chlorophenyl)isoxazol-3-ol] | 25 to 50 nM |
| COc1cc(-c2cc(O)no2)ccc1Cn1ccnc1 [Compound 10, 5-(4-((1H-imidazol-1-yl)methyl)-3-methoxyphenyl)isoxazol-3-ol] | 50 to 100 nM |
| Oc1cc(-c2cc(F)c(Cn3ccnc3)c(F)c2)on1 [Compound 17, 5-(4-((1H-imidazol-1-yl)methyl)-3,5-difluorophenyl)isoxazol-3-ol] | ≤ 25 nM |
| COc1cc(Cn2ccnc2)ccc1-c1cc(O)no1 [Compound 9, 5-(4-((1H-imidazol-1-yl)methyl)-2-methoxyphenyl)isoxazol-3-ol] | ≤ 25 nM |
| Cc1cc(-c2cc(O)no2)ccc1Cn1ccnc1 [Compound 12, 5-(4-((1H-imidazol-1-yl)methyl)-3-methylphenyl)isoxazol-3-ol] | 25 to 50 nM |
| Oc1cc(-c2ccc(Cn3ccnc3)c(C3CC3)c2)on1 [Compound 15, 5-(4-((1H-imidazol-1-yl)methyl)-3-cyclopropylphenyl)isoxazol-3-ol] | 50 to 100 nM |
| Oc1cc(-c2ccc(Cn3ccnc3)cc2)on1 [Compound 1, 5-(4-((1H-imidazol-1-yl)methyl)phenyl)isoxazol-3-ol] | ≤ 25 nM |
| Oc1cc(-c2ccc(Cn3ccnc3)nc2)on1 [Compound 14, 5-(6-((1H-imidazol-1-yl)methyl)pyridin-3-yl)isoxazol-3-ol] | > 250 nM |
| Oc1cc(-c2c(F)cc(Cn3ccnc3)cc2F)on1 [Compound 5, 5-(4-((1H-imidazol-1-yl)methyl)-2,6-difluorophenyl)isoxazol-3-ol] | 50 to 100 nM |
| CCc1cc(-c2cc(O)no2)ccc1Cn1ccnc1 [Compound 16, 5-(4-((1H-imidazol-1-yl)methyl)-3-ethylphenyl)isoxazol-3-ol] | ≤ 25 nM |
| Oc1cc(-c2ccc(Cn3ccnc3)cc2F)on1 [Compound 3, 5-(4-((1H-imidazol-1-yl)methyl)-2-fluorophenyl)isoxazol-3-ol] | 50 to 100 nM |
| Oc1cc(-c2ccc(Cn3ccnc3)cc2Cl)on1 [Compound 7, 5-(4-((1H-imidazol-1-yl)methyl)-2-chlorophenyl)isoxazol-3-ol] | 50 to 100 nM |
| Oc1cc(-c2cc(F)c(Cn3ccnc3)c(Cl)c2)on1 [Compound 6, 5-(4-((1H-imidazol-1-yl)methyl)-3-chloro-5-fluorophenyl)-isoxazol-3-ol] | 25 to 50 nM |
| Cc1cc(Cn2ccnc2)ccc1-c1cc(O)no1 [Compound 8, 5-(4-((1H-imidazol-1-yl)methyl)-2-methylphenyl)isoxazol-3-ol] | 50 to 100 nM |
| Oc1cc(-c2ccc(Cn3ccnc3)c(Br)c2)on1 [Compound 13, 5-(4-((1H-imidazol-1-yl)methyl)-3-bromophenyl)isoxazol-3-ol] | 25 to 50 nM |
| Cc1cc(-c2cc(O)no2)cc(C)c1Cn1ccnc1 [Compound 18, 5-(4-((1H-imidazol-1-yl)methyl)-3,5-dimethylphenyl)isoxazol-3-ol] | > 250 nM |
| Oc1cc(-c2cc(F)c(Cn3ccnc3)cc2F)on1 [Compound 4, 5-(4-((1H-imidazol-1-yl)methyl)-2,5-difluorophenyl)isoxazol-3-ol] | 25 to 50 nM |
| Oc1cc(-c2ccc(Cn3ccnc3)c(F)c2)on1 [Compound 2, 5-(4-((1H-imidazol-1-yl)methyl)-3-fluorophenyl)isoxazol-3-ol] | 100 to 250 nM |

same assay, conditions: male SD rat whole blood, 37° C. 30 mins, TXB2 by LC-MS/MS; numeric value; read-out: IC50 for the release level of TXB2 in the in-vitro coagulation of rats' whole blood (thromboxane synthetase)

| IC50 | SMILES |
| --- | --- |
| 120 nM | O=C(O)/C=C/c1ccc(Cn2ccnc2)cc1 [Ozagrel, reference compound] |
